Assay results: patent publication US20240217997A1 (priority 2021, published 2024)
In brackets after ≈: the same amount, converted by molar mass. Where two headings read alike, the source gives them in different places.

Legend:
P. falciparum DXR = P. falciparum DXR (Plasmodium falciparum, UniProt Q8IKG4); conditions: cited from earlier work
Plasmodium falciparum = Plasmodium falciparum minimum inhibitory concentration (MIC), Table 4; format: cell-based
[1] = system: Mycobacterium tuberculosis; assay: microbe, parasite or virus in culture

P. falciparum DXR, sequence (Q8IKG4 73-488): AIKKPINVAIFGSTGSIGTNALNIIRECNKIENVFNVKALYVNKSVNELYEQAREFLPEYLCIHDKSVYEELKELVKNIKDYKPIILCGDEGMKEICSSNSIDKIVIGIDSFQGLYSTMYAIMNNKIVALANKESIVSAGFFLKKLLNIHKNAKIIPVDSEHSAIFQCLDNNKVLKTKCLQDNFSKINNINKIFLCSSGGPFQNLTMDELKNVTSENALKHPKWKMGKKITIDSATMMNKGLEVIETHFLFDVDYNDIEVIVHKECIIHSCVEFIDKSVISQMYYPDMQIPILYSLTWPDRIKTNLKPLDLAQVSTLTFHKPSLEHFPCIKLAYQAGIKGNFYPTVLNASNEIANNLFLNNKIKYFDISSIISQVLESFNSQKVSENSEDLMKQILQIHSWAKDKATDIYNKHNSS

Q: Which IC50 (P. falciparum DXR) does the source give for CC(=O)N(O)CCCP(=O)(O)O [FR900098] here?
A: The IC50 was 24 nM.

Q: For O=CN(O)CCCP(=O)(O)O [Fosmidomycin], which “MIC, Mean” value (Plasmodium falciparum; Mean of Runs 1-3) is on record?
A: Its value is 0.9075 µg/mL (≈ 4.96 µM).

Q: What about the “MIC, Run 1” value (Plasmodium falciparum; Run 1) of the same compound?
A: The value was 1.391 µg/mL (≈ 7.6 µM).

Q: What about the “MIC, Run 2” value (Plasmodium falciparum; Run 2) of the same compound?
A: Its value is 0.7607 µg/mL (≈ 4.15 µM).

Q: What about the “MIC, Run 3” value (Plasmodium falciparum; Run 3) of the same compound?
A: The value was 0.5708 µg/mL (≈ 3.12 µM).

Q: What does the source list for NNC(=O)c1ccncc1 [Isoniazid]?
A: MIC ([1]; 168 h, read-out: 1-week MIC 7H9/glucose/BSA/Tx): 0.02 µg/mL (≈ 0.146 µM); MIC ([1]; 168 h, read-out: 1-week MIC 7H9/glucose/casitone/Tx): 0.02 µg/mL (≈ 0.146 µM); MIC ([1]; 168 h, read-out: 1-week MIC 7H9/glycerol/glucose/BSA/Tween): 0.03 µg/mL (≈ 0.219 µM); MIC ([1]; 336 h, read-out: 2-week MIC 7H9/glucose/BSA/Tx): 0.03 µg/mL (≈ 0.219 µM); MIC ([1]; 336 h, read-out: 2-week MIC 7H9/glucose/casitone/Tx): 0.02 µg/mL (≈ 0.146 µM); MIC ([1]; 336 h, read-out: 2-week MIC 7H9/glycerol/glucose/BSA/Tween): 0.039 µg/mL (≈ 0.284 µM)
